Test results published in patent publication US20230355571A1, “METHOD FOR TREATING VIRAL AND BACTERIAL INFECTION THROUGH INHALATION THERAPY” (priority 2020, published 2023).
In brackets after ≈: the same amount, converted by molar mass. Read-outs that look alike come from different tables or passages of the source.

Legend:
hTRPA1 = hTRPA1 (Homo sapiens, UniProt O75762); conditions: cited from earlier work
human TRPM8 (hTRPM8) = human TRPM8 (hTRPM8) (Homo sapiens, UniProt Q7Z2W7); conditions: cited from earlier work
Sequence of human TRPM8 (hTRPM8) (Q7Z2W7 whole entry): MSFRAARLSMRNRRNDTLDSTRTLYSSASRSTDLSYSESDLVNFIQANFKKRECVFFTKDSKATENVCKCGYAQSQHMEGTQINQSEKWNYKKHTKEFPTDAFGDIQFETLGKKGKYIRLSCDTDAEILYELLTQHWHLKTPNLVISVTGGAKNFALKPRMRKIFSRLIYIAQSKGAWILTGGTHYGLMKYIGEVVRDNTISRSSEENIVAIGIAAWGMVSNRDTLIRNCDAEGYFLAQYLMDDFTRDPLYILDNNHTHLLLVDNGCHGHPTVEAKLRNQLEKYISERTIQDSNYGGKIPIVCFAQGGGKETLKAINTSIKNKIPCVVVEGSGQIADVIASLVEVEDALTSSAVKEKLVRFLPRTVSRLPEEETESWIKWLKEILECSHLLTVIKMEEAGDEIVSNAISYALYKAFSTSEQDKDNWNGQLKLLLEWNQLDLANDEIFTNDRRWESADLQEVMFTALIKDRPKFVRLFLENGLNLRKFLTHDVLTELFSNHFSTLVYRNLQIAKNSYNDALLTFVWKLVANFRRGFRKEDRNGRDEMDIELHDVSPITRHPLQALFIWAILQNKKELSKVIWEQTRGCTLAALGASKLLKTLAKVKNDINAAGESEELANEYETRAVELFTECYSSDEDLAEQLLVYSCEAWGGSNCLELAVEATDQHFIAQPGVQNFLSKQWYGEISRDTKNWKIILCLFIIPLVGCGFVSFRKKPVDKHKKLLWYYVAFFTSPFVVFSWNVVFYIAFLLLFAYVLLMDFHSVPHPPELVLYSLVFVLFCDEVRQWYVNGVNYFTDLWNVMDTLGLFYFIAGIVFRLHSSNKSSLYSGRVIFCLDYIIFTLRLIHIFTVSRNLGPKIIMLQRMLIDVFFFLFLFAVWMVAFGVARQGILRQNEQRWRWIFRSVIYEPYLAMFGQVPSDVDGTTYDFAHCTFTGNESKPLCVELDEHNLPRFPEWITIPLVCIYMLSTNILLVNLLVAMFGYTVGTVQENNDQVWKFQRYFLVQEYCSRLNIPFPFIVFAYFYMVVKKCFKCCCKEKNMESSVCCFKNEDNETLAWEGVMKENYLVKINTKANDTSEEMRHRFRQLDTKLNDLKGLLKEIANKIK

[1] = for Concentration in Epithelial Lining Fluid: single 2 mL dose, 25 mL ELF, 100 percent retained
TRPV1 = TRPV1 (Homo sapiens, UniProt Q8NER1); conditions: cited from earlier work
Sequence of TRPV1 (Q8NER1 whole entry): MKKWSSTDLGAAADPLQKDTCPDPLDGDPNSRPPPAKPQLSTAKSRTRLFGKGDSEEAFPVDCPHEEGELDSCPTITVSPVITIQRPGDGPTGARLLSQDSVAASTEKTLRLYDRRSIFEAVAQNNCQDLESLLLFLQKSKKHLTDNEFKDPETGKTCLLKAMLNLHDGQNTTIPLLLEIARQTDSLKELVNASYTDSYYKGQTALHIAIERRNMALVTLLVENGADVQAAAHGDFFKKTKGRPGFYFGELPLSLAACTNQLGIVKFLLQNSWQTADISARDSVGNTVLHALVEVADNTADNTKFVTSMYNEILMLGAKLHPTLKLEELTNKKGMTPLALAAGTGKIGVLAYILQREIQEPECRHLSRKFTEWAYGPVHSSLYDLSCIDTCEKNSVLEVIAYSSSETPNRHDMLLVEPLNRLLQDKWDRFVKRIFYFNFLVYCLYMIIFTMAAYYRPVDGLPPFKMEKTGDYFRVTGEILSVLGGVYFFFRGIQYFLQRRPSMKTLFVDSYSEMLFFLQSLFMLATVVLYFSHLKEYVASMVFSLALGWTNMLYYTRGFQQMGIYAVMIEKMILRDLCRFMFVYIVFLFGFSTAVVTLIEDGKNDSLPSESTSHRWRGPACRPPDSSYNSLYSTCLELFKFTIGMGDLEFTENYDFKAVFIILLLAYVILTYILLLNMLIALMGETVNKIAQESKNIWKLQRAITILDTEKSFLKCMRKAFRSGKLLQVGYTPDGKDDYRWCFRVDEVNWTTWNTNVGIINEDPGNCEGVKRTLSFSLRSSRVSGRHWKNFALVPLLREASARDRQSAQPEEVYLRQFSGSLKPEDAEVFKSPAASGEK

hTRPV2 = hTRPV2 (Homo sapiens, UniProt Q9Y5S1); conditions: cited from earlier work
Sequence of hTRPV2 (Q9Y5S1 whole entry): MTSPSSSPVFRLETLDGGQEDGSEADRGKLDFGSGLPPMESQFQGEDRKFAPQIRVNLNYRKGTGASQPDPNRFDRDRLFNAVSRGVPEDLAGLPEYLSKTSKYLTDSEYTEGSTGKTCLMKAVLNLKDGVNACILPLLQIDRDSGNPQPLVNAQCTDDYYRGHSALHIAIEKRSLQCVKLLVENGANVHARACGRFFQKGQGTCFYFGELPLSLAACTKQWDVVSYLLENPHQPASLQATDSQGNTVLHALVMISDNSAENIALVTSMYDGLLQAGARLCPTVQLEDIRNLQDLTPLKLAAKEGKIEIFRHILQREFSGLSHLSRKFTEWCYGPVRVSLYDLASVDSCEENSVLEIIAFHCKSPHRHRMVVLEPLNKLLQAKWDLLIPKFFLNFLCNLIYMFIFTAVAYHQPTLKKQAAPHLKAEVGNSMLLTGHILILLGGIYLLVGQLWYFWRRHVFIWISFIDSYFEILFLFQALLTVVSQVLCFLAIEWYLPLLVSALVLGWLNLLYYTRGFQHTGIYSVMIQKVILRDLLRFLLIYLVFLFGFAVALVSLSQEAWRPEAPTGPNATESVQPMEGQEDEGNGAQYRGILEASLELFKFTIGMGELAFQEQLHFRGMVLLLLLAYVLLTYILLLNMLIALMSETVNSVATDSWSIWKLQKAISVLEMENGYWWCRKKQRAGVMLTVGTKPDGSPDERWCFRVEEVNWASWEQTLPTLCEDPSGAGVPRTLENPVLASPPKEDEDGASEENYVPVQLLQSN

[2] = tested on: patients with steroid-dependent bronchial asthma; conditions: cited from earlier work
[3] = tested on: patients with reversible obstructive ventilatory disorders; conditions: cited from earlier work
blood monocytes = conditions: cited from earlier work
lymphocytes = conditions: cited from earlier work
monocytes = conditions: cited from earlier work
[4] = tested on: superoxide, super oxide dismutase, hydrogen peroxide, 8-isoprostanes; conditions: cited from earlier work
avian coronavirus (IBV) = conditions: cited from earlier work
mice [5] = conditions: oral, mice, 28-d; cited from earlier work
[6] = cited from earlier work
mice [7] = experiment: NOAEL, oral, mice; conditions: for factor NOAEL over daily inhaled dose: 2 mL/dose 4 times per day of Table A2 composition; for NOAEL for a 62 kg adult human: extrapolated from mouse NOAEL
CB2 receptor = CB2 receptor (Homo sapiens, UniProt P34972); conditions: unit inferred; read-out: Ki, CB2 receptor binding; cited from earlier work
Sequence of CB2 receptor (P34972 whole entry): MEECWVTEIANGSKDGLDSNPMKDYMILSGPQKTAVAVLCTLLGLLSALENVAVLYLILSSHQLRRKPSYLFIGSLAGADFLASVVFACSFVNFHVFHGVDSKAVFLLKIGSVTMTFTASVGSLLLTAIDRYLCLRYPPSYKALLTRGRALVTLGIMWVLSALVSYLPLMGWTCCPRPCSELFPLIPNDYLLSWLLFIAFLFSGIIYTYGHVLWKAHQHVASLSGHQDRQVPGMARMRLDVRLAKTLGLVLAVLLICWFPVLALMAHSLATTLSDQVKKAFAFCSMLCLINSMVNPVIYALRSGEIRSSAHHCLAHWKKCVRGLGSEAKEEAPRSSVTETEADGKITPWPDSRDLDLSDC

E. coli (MTCC 732) = conditions: cited from earlier work
S. aureus = conditions: cited from earlier work
K. pneumoniae = conditions: cited from earlier work
P. aeruginosa = conditions: cited from earlier work
[8] = tested on: Herpes simplex virus type 1 (HSV-1); conditions: cited from earlier work
DENV-2 (Dengue Virus 2) = conditions: cited from earlier work
[9] = tested on: human lung carcinoma (A549) cell line; conditions: cited from earlier work
NCI-H358 cells = conditions: cited from earlier work
human whole blood = conditions: 102 μg/mL; cited from earlier work

Sequence of hTRPA1 (O75762 whole entry): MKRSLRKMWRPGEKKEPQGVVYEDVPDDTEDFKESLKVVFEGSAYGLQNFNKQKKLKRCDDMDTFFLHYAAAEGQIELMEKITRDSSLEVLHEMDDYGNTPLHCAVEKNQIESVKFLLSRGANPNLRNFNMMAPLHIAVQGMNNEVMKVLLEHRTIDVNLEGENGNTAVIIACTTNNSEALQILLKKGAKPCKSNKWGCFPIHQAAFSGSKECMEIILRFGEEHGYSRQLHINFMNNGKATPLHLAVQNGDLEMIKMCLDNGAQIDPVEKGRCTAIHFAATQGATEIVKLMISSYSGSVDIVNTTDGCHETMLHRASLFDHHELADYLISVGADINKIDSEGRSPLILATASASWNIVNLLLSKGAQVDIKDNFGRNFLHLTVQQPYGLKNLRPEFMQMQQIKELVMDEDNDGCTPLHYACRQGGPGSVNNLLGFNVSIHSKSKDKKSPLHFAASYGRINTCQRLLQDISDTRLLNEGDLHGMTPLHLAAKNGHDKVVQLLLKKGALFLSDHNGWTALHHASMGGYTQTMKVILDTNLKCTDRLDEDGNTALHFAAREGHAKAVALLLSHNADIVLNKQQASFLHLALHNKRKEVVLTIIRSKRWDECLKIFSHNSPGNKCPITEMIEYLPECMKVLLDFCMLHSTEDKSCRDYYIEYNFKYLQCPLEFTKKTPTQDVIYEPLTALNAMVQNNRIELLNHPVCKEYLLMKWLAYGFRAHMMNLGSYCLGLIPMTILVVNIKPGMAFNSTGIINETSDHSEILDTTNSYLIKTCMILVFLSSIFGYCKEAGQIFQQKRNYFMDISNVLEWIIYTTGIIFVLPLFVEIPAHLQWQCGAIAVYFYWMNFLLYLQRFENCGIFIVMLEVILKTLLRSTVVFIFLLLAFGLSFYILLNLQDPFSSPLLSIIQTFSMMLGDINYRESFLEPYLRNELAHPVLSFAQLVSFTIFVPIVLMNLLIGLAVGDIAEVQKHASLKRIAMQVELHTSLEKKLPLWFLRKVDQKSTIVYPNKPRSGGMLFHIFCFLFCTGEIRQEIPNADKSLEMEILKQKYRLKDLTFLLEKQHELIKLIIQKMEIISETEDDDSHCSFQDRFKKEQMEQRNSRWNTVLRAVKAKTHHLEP

Structure (SMILES): CC12CCC(CC1)C(C)(C)O2 [1,8-cineole]
- activation of hTRPA1 (hTRPA1): did not activate
- activation of hTRPM8 (human TRPM8 (hTRPM8)): activates
- estimated concentration in the epithelial lining fluid of the lungs ([1]; human): 614 µg/mL
- activation of hTRPV1 (TRPV1): did not activate
- activation of hTRPV2 (hTRPV2): did not activate
- mean reduction in daily prednisolone dosage ([2]; 200 mg 3 times per day orally, 12 weeks, placebo 0.91 mg): 3.75 mg
- reductions in daily prednisolone dosage tolerated ([2]; 200 mg 3 times per day orally, 12 weeks, placebo 7%): 36%
- patients achieving a reduction of oral steroids ([2]; 1,8-cineole group, placebo four out of 16): Twelve of 16
- improvement of airway resistance ([3]; treatment duration eight weeks): −21%
- improvement of airway resistance ([3]; treatment duration one week): −23%
- production of LTB4 from monocytes ex vivo (blood monocytes; day 4, healthy volunteers): −57.9%
- production of PGE2 from monocytes ex vivo (blood monocytes; day 4, healthy volunteers): −42.7%
- production of LTB4 from monocytes ex vivo (blood monocytes; day 4, patients with bronchial asthma, 200 mg 3 times/day): −40.3%
- production of PGE2 from monocytes ex vivo (blood monocytes; day 4, patients with bronchial asthma): −31.3%
- inhibition of IL-1β production by lymphocytes (lymphocytes; 0.15 μg/ml): 36%
- inhibition of TNF-α production by lymphocytes (lymphocytes; 0.15 μg/ml): 16%
- inhibition of IL-4 production in lymphocytes (lymphocytes; 1.5 μg/mL): 70%
- inhibition of IL-5 production in lymphocytes (lymphocytes; 1.5 μg/mL): 65%
- inhibition of TNFα production in lymphocytes (lymphocytes; 1.5 μg/mL): 92%
- inhibition of cytokine production in lymphocytes, second value (cytokine not named) (lymphocytes; 1.5 μg/mL): 84%
- inhibition of IL-1β production by monocytes (monocytes; 0.15 μg/ml): 61%
- inhibition of TNFα production by monocytes (monocytes; 0.15 μg/ml): 77%
- inhibition of IL-1β production in monocytes (monocytes; 1.5 μg/mL): 84%
- inhibition of IL-6 production in monocytes (monocytes; 1.5 μg/mL): 76%
- inhibition of IL-8 production in monocytes (monocytes; 1.5 μg/mL): 65%
- inhibition of TNFα production in monocytes (monocytes; 1.5 μg/mL): 99%
- LPS-stimulated 8-isoprostanes ([4]; 10^−5 M): −84%
- LPS-stimulated 8-isoprostanes ([4]; 10^−6 M): −42%
- IC50 (avian coronavirus (IBV)): 610 µM
- NOAEL (mice [5]): 562.5 mg/kg
- LD50 ([6]; in vivo): 2,480 mg/kg
- LD50 ([6]; oral, rat): 2,480 mg/kg
- factor NOAEL over daily inhaled dose (mice [7]): 697.5 times
- NOAEL for a 62 kg adult human (mice [7]): 34,875 mg per day

Structure (SMILES): C=C1CC/C=C(\C)CC[C@@H]2[C@@H]1CC2(C)C [β-caryophyllene]
- Concentration in Epithelial Lining Fluid ([1]; Table A2 Preferred Base Viral Nebulizer Liquid): 600 µg/mL
- Concentration in Epithelial Lining Fluid ([1]; Table A3 Preferred Viral Respiratory Challenged Nebulizer Liquid): 970 µg/mL
- Concentration in Epithelial Lining Fluid ([1]; Table A4 Preferred Bacterial Pneumonia Nebulizer Liquid): 1450 µg/mL
- Concentration in Epithelial Lining Fluid ([1]; Table A6 Preferred Base Nebulizer Liquid with Amino Acids): 1450 µg/mL
- Ki (CB2 receptor): 0.155 µM
- Minimum Inhibitory Concentration (MIC) (E. coli (MTCC 732)): 9.0 ± 2.2 µM
- MIC (S. aureus): 3 µM (≈ 0.613 µg/mL)
- MIC (K. pneumoniae): 14 µM (≈ 2.86 µg/mL)
- MIC (P. aeruginosa): 7 µM (≈ 1.43 µg/mL)
- IC50 [8]: 0.25 µM
- selectivity index (DENV-2 (Dengue Virus 2); DENV-2, non-cytostatic): 71.1
- IC50 (DENV-2 (Dengue Virus 2)): 22.5 µM
- IC50, DENV-2 (DENV-2 (Dengue Virus 2)): 4.6 µg/mL (≈ 22.5 µM)
- cytotoxic IC50 [9]: 28.18 ± 1.96 µg/mL
- cytotoxic IC50 (NCI-H358 cells): 31.19 ± 2.01 µg/mL
- LPS-stimulated IL-1β and TNF-α expression (human whole blood): inhibits
- LD50 ([6]; in vivo): > 5,000 mg/kg
- factor NOAEL over daily inhaled dose (mice [7]): 868 times
- NOAEL for a 62 kg adult human (mice [7]): 43,400 mg per day
